Experimental data published in patent publication US20250171431A1, “HETEROCYCLIC INHIBITORS OF IGF-1R FOR TREATMENT OF DISEASE” (HORIZON THERAPEUTICS IRELAND DAC, priority 2023, published 2025).

Biological target: IGF-1R (Homo sapiens (Human), UniProt P08069)
Assay: Example B-1: IGF-1R Assay (PC3 cells, IGF1 stimulation, AlphaLISA)
Assay type: cell-based
Conditions: 200 ng/mL IGF1 stimulation, read-out: Biological Activity against IGF-1R IC50
Summary of the method: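 Readout is AlphaLISA signal from lysed PC3 cells, expressed as % inhibition versus vehicle and EC80 controls and banded by IC50. Before lysis, the cells were starved of serum for 2 h, exposed to 3× serially diluted compound for 2 h, and stimulated for 30 min with 200 ng/mL IGF1 (final).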

IGF-1R, sequence (P08069 31-1367): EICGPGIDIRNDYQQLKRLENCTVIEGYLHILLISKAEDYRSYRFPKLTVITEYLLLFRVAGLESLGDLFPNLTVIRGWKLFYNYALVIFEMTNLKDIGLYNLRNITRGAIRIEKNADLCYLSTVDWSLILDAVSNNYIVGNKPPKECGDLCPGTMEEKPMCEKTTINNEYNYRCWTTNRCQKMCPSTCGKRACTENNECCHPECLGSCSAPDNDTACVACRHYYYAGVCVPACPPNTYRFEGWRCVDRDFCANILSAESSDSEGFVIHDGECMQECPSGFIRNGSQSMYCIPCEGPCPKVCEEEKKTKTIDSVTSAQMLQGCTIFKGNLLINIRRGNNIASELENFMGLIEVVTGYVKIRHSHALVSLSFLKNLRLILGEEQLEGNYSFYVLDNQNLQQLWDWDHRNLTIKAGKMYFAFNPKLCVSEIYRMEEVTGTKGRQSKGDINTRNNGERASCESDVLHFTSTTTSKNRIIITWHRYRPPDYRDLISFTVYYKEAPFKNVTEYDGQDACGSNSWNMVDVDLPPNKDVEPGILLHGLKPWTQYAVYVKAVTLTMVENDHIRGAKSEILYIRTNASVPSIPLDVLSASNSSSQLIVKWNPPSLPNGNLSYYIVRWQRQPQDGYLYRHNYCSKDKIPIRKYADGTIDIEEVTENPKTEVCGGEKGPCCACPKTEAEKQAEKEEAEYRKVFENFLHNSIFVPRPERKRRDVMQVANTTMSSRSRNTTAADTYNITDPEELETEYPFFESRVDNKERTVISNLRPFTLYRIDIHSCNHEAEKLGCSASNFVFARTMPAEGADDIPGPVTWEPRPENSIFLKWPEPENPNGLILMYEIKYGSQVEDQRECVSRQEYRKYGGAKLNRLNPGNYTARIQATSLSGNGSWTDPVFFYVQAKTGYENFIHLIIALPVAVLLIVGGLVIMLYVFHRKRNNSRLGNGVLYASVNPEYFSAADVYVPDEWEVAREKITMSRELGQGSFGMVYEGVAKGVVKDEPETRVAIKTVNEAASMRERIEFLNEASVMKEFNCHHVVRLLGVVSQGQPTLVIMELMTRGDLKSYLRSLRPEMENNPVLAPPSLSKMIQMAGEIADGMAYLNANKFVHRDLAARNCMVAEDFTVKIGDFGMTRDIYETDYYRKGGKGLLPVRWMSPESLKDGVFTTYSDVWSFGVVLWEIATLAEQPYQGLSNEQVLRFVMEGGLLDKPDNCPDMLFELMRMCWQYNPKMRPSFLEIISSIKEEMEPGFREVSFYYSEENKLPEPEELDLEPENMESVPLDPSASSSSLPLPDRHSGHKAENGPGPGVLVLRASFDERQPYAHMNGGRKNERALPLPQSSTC

In the case of CN(C)[C@H]1CC[C@@H](Oc2ccc(Nc3nccc(Nc4cnc5ccc(Cl)cc5c4)n3)cc2)CC1 [Compound 310, 4-(6-chloro-3-quinolylamino)-2-{p-[(1s,4s)-4-(dimethylamino)cyclohexyloxy]phenylamino}pyrimidine], the IC50 is reported as no more than 500 nM.
For Clc1ccc2ncc(Nc3ccnc(Nc4ccc(O[C@H]5CC[C@@H](N6CCOCC6)CC5)cc4)n3)cc2c1 [Compound 311, 4-(6-chloro-3-quinolylamino)-2-{p-[(1s,4s)-4-morpholinocyclohexyloxy]phenylamino}pyrimidine], the IC50 was no more than 500 nM.
With COc1cc(Nc2nccc(Nc3cnc4c(OC)cccc4c3)n2)ccc1O[C@H]1C[C@@H](N(C)C)C1 [Compound 312, 4-(8-methoxy-3-quinolylamino)-2-{3-methoxy-4-[(1s,3s)-3-(dimethylamino)cyclobutoxy]phenylamino}pyrimidine] the IC50 was no more than 500 nM.
With COc1cc(Nc2nccc(Nc3cnc4ccc(C#N)cc4c3)n2)ccc1O[C@H]1C[C@@H](N(C)C)C1 [Compound 313, 3-(2-{3-methoxy-4-[(1s,3s)-3-(dimethylamino)cyclobutoxy]phenylamino}-4-pyrimidinylamino)-6-quinolinecarbonitrile] the IC50 was no more than 500 nM.
With COc1cc(Nc2nccc(Nc3ccc4ncc(Br)cc4n3)n2)ccc1O[C@H]1C[C@@H](N(C)C)C1 [Compound 314, 4-(7-bromo-1,5-diaza-2-naphthylamino)-2-{3-methoxy-4-[(1s,3s)-3-(dimethylamino)cyclobutoxy]phenylamino}pyrimidine] the IC50 was greater than 10000 nM.
CN(C)[C@H]1C[C@H](Oc2ccc(Nc3nccc(Nc4cnc5c(c4)CCCC5)n3)cc2)C1 [Compound 315, 2-{p-[(1r,3r)-3-(dimethylamino)cyclobutoxy]phenylamino}-4-(5,6,7,8-tetrahydro-3-quinolylamino)pyrimidine] gave an IC50 of no more than 500 nM.
For COc1cc(Nc2nccc(Nc3cnc4cc(Br)cnc4c3)n2)ccc1O[C@H]1C[C@@H](N(C)C)C1 [Compound 316, 4-(7-bromo-1,5-diaza-3-naphthylamino)-2-{3-methoxy-4-[(1s,3s)-3-(dimethylamino)cyclobutoxy]phenylamino}pyrimidine], the IC50 was no more than 500 nM.
Work on CN(C)[C@H]1C[C@H](Oc2ccc(Nc3nccc(Nc4cnc5c(c4)OCCO5)n3)cc2)C1 [Compound 317, 4-(2,3-dihydro-1,4-dioxa-5-aza-7-naphthylamino)-2-{p-[(1r,3r)-3-(dimethylamino)cyclobutoxy]phenylamino}pyrimidine] yielded an IC50 of no more than 500 nM.
For CN(C)[C@H]1C[C@H](Oc2ccc(Nc3nccc(Nc4cnc5c(c4)SCCC5)n3)cc2)C1 [Compound 318, 4-(3,4-dihydro-2H-1-thia-5-azanaphth-7-ylamino)-2-{p-[(1r,3r)-3-(dimethylamino)cyclobutoxy]phenylamino}pyrimidine], the IC50 was no more than 500 nM.
Work on CN(C)[C@H]1C[C@H](Oc2ccc(Nc3nccc(Nc4cnc5ccc(Cl)cc5c4)n3)cc2)C1 [Compound 319, 4-(6-chloro-3-quinolylamino)-2-{p-[(1r,3r)-3-(dimethylamino)cyclobutoxy]phenylamino}pyrimidine] yielded an IC50 of no more than 500 nM.
CN(C)[C@H]1C[C@H](Oc2ccc(Nc3nccc(Nc4cnc5ccc(Br)cc5c4)n3)cc2)C1 [Compound 320, 4-(6-bromo-3-quinolylamino)-2-{p-[(1r,3r)-3-(dimethylamino)cyclobutoxy]phenylamino}pyrimidine] showed an IC50 of no more than 500 nM.
COc1cc(Nc2nccc(Nc3cnc4c(c3)C3CCC4C3)n2)ccc1O[C@H]1C[C@@H](N(C)C)C1 (some centres unmarked) [Compound 321, 4-{3-azatricyclo[6.2.1.02,7]undeca-2(7),3,5-trien-5-ylamino}-2-{3-methoxy-4-[(1s,3s)-3-(dimethylamino)cyclobutoxy]phenylamino}pyrimidine] gave an IC50 of no more than 500 nM.
In the case of COc1cc(Nc2nccc(Nc3cnc4c(c3)CC3(CC4)OCCO3)n2)ccc1O[C@H]1C[C@@H](N(C)C)C1 [Compound 322, 4-(7′,8′-dihydro-5′H-spiro[1,3-dioxolane-2,6′-quinolin]-3′-ylamino)-2-{3-methoxy-4-[(1s,3s)-3-(dimethylamino)cyclobutoxy]phenylamino}pyrimidine], the IC50 is reported as no more than 500 nM.
COc1cc(Nc2nccc(Nc3cnc4c(F)c(F)ccc4c3)n2)ccc1O[C@H]1C[C@H](N(C)C)C1 [Compound 323, 4-(7,8-difluoro-3-quinolylamino)-2-{3-methoxy-4-[(1r,3r)-3-(dimethylamino)cyclobutoxy]phenylamino}pyrimidine] gave an IC50 of no more than 500 nM.
COc1cc(Nc2nccc(Nc3cnc4cc(Cl)ccc4c3)n2)ccc1O[C@H]1C[C@H](N(C)C)C1 [Compound 324, 4-(7-chloro-3-quinolylamino)-2-{3-methoxy-4-[(1r,3r)-3-(dimethylamino)cyclobutoxy]phenylamino}pyrimidine] gave an IC50 of no more than 500 nM.
COc1cc(Nc2nccc(Nc3cnc4ccc(C5CC5)cc4c3)n2)ccc1O[C@H]1C[C@H](N(C)C)C1 [Compound 325, 4-(6-cyclopropyl-3-quinolylamino)-2-{3-methoxy-4-[(1r,3r)-3-(dimethylamino)cyclobutoxy]phenylamino}pyrimidine] was tested, and the IC50 was no more than 500 nM.
COc1cc(Nc2nccc(Nc3cnc4cc(O)ccc4c3)n2)ccc1O[C@H]1C[C@H](N(C)C)C1 [Compound 326, 3-(2-{3-methoxy-4-[(1r,3r)-3-(dimethylamino)cyclobutoxy]phenylamino}-4-pyrimidinylamino)-7-quinolinol] was tested, and the IC50 was no more than 500 nM.
Fc1cnc(Nc2ccc(O[C@H]3C[C@H](N4CCOCC4)C3)cc2)nc1Nc1cnc2ccccc2c1 [Compound 327, 5-fluoro-4-(3-quinolylamino)-2-{p-[(1r,3r)-3-morpholinocyclobutoxy]phenylamino}pyrimidine] gave an IC50 of no more than 500 nM.
For COc1cc(Nc2nccc(Nc3cnc4cc(Br)ccc4c3)n2)ccc1O[C@H]1C[C@H](N(C)C)C1 [Compound 328, 4-(7-bromo-3-quinolylamino)-2-{3-methoxy-4-[(1r,3r)-3-(dimethylamino)cyclobutoxy]phenylamino}pyrimidine], the IC50 was no more than 500 nM.
COc1cc(Nc2nccc(Nc3cnc4ccc(S(C)(=O)=O)cc4c3)n2)ccc1O[C@H]1C[C@H](N(C)C)C1 [Compound 329, 4-(6-mesyl-3-quinolylamino)-2-{3-methoxy-4-[(1r,3r)-3-(dimethylamino)cyclobutoxy]phenylamino}pyrimidine] gave an IC50 of no more than 500 nM.
With COc1cc(Nc2nccc(Nc3cnc4ccc(O)cc4c3)n2)ccc1O[C@H]1C[C@H](N(C)C)C1 [Compound 330, 3-(2-{3-methoxy-4-[(1r,3r)-3-(dimethylamino)cyclobutoxy]phenylamino}-4-pyrimidinylamino)-6-quinolinol] the IC50 was no more than 500 nM.
For COc1cc(Nc2nccc(Nc3cnc4ccccc4c3)n2)ccc1O[C@H]1CC[C@@H](N(C)C)CC1 [Compound 331], the IC50 was no more than 500 nM.
Work on COc1cc(Nc2nccc(Nc3cnc4c(Cl)cccc4c3)n2)ccc1O[C@H]1CC[C@@H](N(C)C)CC1 [Compound 332, 4-(8-chloro-3-quinolylamino)-2-{3-methoxy-4-[(1s,4s)-4-(dimethylamino)cyclohexyloxy]phenylamino}pyrimidine] yielded an IC50 of no more than 500 nM.
In the case of COc1cc(Nc2nccc(Nc3cnc4c(Cl)cccc4c3)n2)ccc1O[C@H]1CC[C@@H](N2CCOCC2)CC1 [Compound 333, 4-(8-chloro-3-quinolylamino)-2-{3-methoxy-4-[(1s,4s)-4-morpholinocyclohexyloxy]phenylamino}pyrimidine], the IC50 is reported as no more than 500 nM.
With COc1cc(Nc2nccc(Nc3cnc4ccc(C(F)(F)F)cc4c3)n2)ccc1O[C@H]1C[C@H](N(C)C)C1 [Compound 334, 2-{3-methoxy-4-[(1r,3r)-3-(dimethylamino)cyclobutoxy]phenylamino}-4-[6-(trifluoromethyl)-3-quinolylamino]pyrimidine] the IC50 was no more than 500 nM.
COc1cc(Nc2nccc(Nc3cnc4ccc(C)cc4c3)n2)ccc1O[C@H]1C[C@H](N(C)C)C1 [Compound 335, 2-{3-methoxy-4-[(1r,3r)-3-(dimethylamino)cyclobutoxy]phenylamino}-4-(6-methyl-3-quinolylamino)pyrimidine] was tested, and the IC50 was no more than 500 nM.
COc1cc(Nc2nccc(Nc3cnc4cc(C)ccc4c3)n2)ccc1O[C@H]1C[C@H](N(C)C)C1 [Compound 336, 2-{3-methoxy-4-[(1r,3r)-3-(dimethylamino)cyclobutoxy]phenylamino}-4-(7-methyl-3-quinolylamino)pyrimidine] gave an IC50 of no more than 500 nM.
COc1ccc2cc(Nc3ccnc(Nc4ccc(O[C@H]5C[C@H](N(C)C)C5)c(OC)c4)n3)cnc2c1 [Compound 337, 4-(7-methoxy-3-quinolylamino)-2-{3-methoxy-4-[(1r,3r)-3-(dimethylamino)cyclobutoxy]phenylamino}pyrimidine] showed an IC50 of no more than 500 nM.
COc1cc(Nc2nccc(Nc3cnc4c(c3)CCC(C)(C)C4)n2)ccc1O[C@H]1C[C@H](N(C)C)C1 [Compound 338, 4-(7,7-dimethyl-5,6,7,8-tetrahydro-3-quinolylamino)-2-{3-methoxy-4-[(1r,3r)-3-(dimethylamino)cyclobutoxy]phenylamino}pyrimidine] was tested, and the IC50 was no more than 500 nM.
For COc1cc(Nc2nccc(Nc3cnc4c(c3)CC(C)(C)CC4)n2)ccc1O[C@H]1C[C@H](N(C)C)C1 [Compound 339, 4-(6,6-dimethyl-5,6,7,8-tetrahydro-3-quinolylamino)-2-{3-methoxy-4-[(1r,3r)-3-(dimethylamino)cyclobutoxy]phenylamino}pyrimidine], the IC50 was no more than 500 nM.
COc1cc(Nc2nccc(Nc3cc4ccccc4nc3OC)n2)ccc1O[C@H]1C[C@H](N(C)C)C1 [Compound 340, 4-(2-methoxy-3-quinolylamino)-2-{3-methoxy-4-[(1r,3r)-3-(dimethylamino)cyclobutoxy]phenylamino}pyrimidine] gave an IC50 of no more than 500 nM.
For COc1cc(Nc2nccc(Nc3cnc4cc(C(F)(F)F)ccc4c3)n2)ccc1O[C@H]1C[C@H](N(C)C)C1 [Compound 341, 2-{3-methoxy-4-[(1r,3r)-3-(dimethylamino)cyclobutoxy]phenylamino}-4-[7-(trifluoromethyl)-3-quinolylamino]pyrimidine], the IC50 was 500 to 2000 nM.
